Data: the NIST ThermoML archive (doi:10.1016/j.fluid.2014.01.038)
Numbers after ± are expanded uncertainties.

How the values were obtained:
[1] = cn = amount concentration of the nth substance listed, in mol/dm3; conditions: 101 kPa, Liquid, Alternating current cell with electrodes
[2] = mn = molality of the nth substance listed, in mol/kg; conditions: 288.15 K, 101 kPa, Liquid, Pycnometric method

CCCCCCCCCCCCn1cc[n+](C)c1.[Br-] [1-dodecyl-3-methylimidazolium bromide] + O
electrical conductivity [S/m], [1]
Conditions	283.15 K	288.15 K	293.15 K	298.15 K	303.15 K	308.15 K
c1 = 0.0006629	0.00432 ± 0.0026	0.00491 ± 0.003	0.0055 ± 0.0034	0.00613 ± 0.0038	0.00676 ± 0.0042	0.00742 ± 0.0046
c1 = 0.001064	0.00695 ± 0.0026	0.00789 ± 0.003	0.00894 ± 0.0033	0.00994 ± 0.0037	0.011 ± 0.0041	0.0121 ± 0.0045
c1 = 0.001497	0.0098 ± 0.0026	0.0111 ± 0.0029	0.0125 ± 0.0033	0.0139 ± 0.0036	0.0154 ± 0.0039	0.0169 ± 0.0043
c1 = 0.00184	0.012 ± 0.0025	0.0136 ± 0.0028	0.0153 ± 0.0031	0.017 ± 0.0035	0.0188 ± 0.0039	0.0201 ± 0.0043
c1 = 0.002146	0.014 ± 0.002	0.0158 ± 0.0022	0.0178 ± 0.0024	0.0198 ± 0.0028	0.0216 ± 0.0033	0.0237 ± 0.0038
c1 = 0.00249	0.0158 ± 0.0018	0.0178 ± 0.0021	0.0201 ± 0.0023	0.0222 ± 0.0027	0.0247 ± 0.0032	0.0273 ± 0.0039
c1 = 0.002909	0.0168 ± 0.00079	0.019 ± 0.00091	0.0212 ± 0.00097	0.0239 ± 0.0013	0.027 ± 0.0017	0.0304 ± 0.0022
c1 = 0.003361	0.0175 ± 0.00063	0.0198 ± 0.00059	0.0222 ± 0.00087	0.0251 ± 0.00099	0.0284 ± 0.0012	0.0321 ± 0.0014
c1 = 0.003884	0.0183 ± 0.0006	0.0204 ± 0.0006	0.0233 ± 0.0008	0.0264 ± 0.00098	0.0299 ± 0.0011	0.0338 ± 0.0013
c1 = 0.00448	0.0192 ± 0.00058	0.0215 ± 0.00074	0.0244 ± 0.00081	0.0279 ± 0.00099	0.0315 ± 0.0011	0.0358 ± 0.0013
c1 = 0.004998	0.0199 ± 0.00049	0.0224 ± 0.0007	0.0256 ± 0.00085	0.0291 ± 0.00092	0.033 ± 0.0011	0.0374 ± 0.0013
c1 = 0.005625	0.0206 ± 0.00045	0.0236 ± 0.0008	0.0269 ± 0.00091	0.0305 ± 0.001	0.0347 ± 0.0012	0.0394 ± 0.0013

CC(C)C[C@H](NC(=O)CN)C(=O)O [glycyl-L-leucine] + O
[2]
Conditions	mass density [kg/m3]
m1 = 0.03301	1000.8 ± 20
m1 = 0.04936	1001.65 ± 20
m1 = 0.05894	1002.14 ± 20
m1 = 0.06889	1002.67 ± 20
m1 = 0.07838	1003.17 ± 20
m1 = 0.08821	1003.69 ± 20
m1 = 0.09745	1004.12 ± 20

CC(C)[C@H](NC(=O)CN)C(=O)O [glycyl-L-valine] + O
[2]
Conditions	mass density [kg/m3]
m1 = 0.04051	1001.29 ± 20
m1 = 0.08097	1003.45 ± 20
m1 = 0.1203	1005.55 ± 20
m1 = 0.1403	1006.63 ± 20
m1 = 0.1594	1007.68 ± 20
m1 = 0.1799	1008.79 ± 20
m1 = 0.1995	1009.84 ± 20

NCC(=O)NCC(=O)O [glycylglycine] + O
[2]
Conditions	mass density [kg/m3]
m1 = 0.06148	1002.65 ± 20
m1 = 0.09135	1004.36 ± 20
m1 = 0.1538	1007.96 ± 20
m1 = 0.1823	1009.6 ± 20
m1 = 0.2128	1011.36 ± 20
m1 = 0.2534	1013.73 ± 20
m1 = 0.3028	1016.61 ± 20
